# From patent US10485236B2, “Triazole derivatives, intermediates thereof and their use as fungicides” (Bayer CropScience Aktiengesellschaft, priority 2015, dated 2019)
# How the values were obtained:
# [1] = Measurement of LogP values by HPLC on reversed phase columns (EEC directive 79/831 Annex V.A8); assay type: physicochemical; conditions: reversed phase HPLC column, method [a]: LC-UV, acidic range, 0.1% formic acid in water and acetonitrile as eluent
# In short: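 Calibrated with straight-chain alkan-2-ones (3–16 carbons) of known LogP, using retention times with linear interpolation between successive alkanones. Where one method gives several LogP values, all are listed, joined by "+". Lambda-max taken from UV spectra (200–400 nm) at chromatographic peak maxima.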
# Botrytis cinerea = assay: Example A: in vivo preventive test on Botrytis cinerea (grey mould), gherkin; conditions: gherkin plants, preventive spray, evaluated 4 to 5 days after inoculation, read-out: efficacy
# Protocol: Example A: In Vivo Preventive Test on Botrytis cinerea (Grey Mould) [table] The active ingredients are made soluble and homogenized in a mixture of Dimethyl sulfoxide/Acetone//Tween® 80 and then diluted in water to the desired concentration. The young plants of gherkin are treated by spraying the active ingredient prepared as described above. Control plants are treated only with an aqueous solution of Acetone/Dimethyl sulfoxide/Tween® 80. After 24 hours, the plants are contaminated by spraying the leaves with an aqueous suspension of Botrytis cinerea spores. The contaminated gherkin plants are incubated for 4 to 5 days at 17° C. and at 90% relative humidity. The test is evaluated 4 to 5 days after the inoculation. 0% means an efficacy which corresponds to that of the control plants while an efficacy of 100% means that no disease is observed.
# Puccinia recondita = assay: Example B: in vivo preventive test on Puccinia recondita (brown rust on wheat); conditions: 264 h, 500 ppm of active ingredient, wheat plants, preventive spray, evaluated 11 days after inoculation, read-out: efficacy
# Protocol: (§1) Example B: In Vivo Preventive Test on Puccinia recondita (Brown Rust on Wheat) [table] The active ingredients are made soluble and homogenized in a mixture of Dimethyl sulfoxide/Acetone//Tween® 80 and then diluted in water to the desired concentration. The young plants of wheat are treated by spraying the active ingredient prepared as described above. Control plants are treated only with an aqueous solution of Acetone/Dimethyl sulfoxide/Tween® 80. After 24 hours, the plants are contaminated by spraying the leaves with an aqueous suspension of Puccinia recondita spores. The contaminated wheat plants are incubated for 24 hours at 20° C. and at 100% relative humidity and then for 10 days at 20° C. and at 70-80% relative humidity. The test is evaluated 11 days after the inoculation. 0% means an efficacy which corresponds to that of the control plants while an efficacy of 100% means that no disease is observed.
# Septoria tritici = assay: Example C: in vivo preventive test on Septoria tritici (leaf spot on wheat); conditions: Zymoseptoria tritici, 576 h; 500 ppm of active ingredient; wheat plants, preventive spray; evaluated 24 days after inoculation; read-out: efficacy
# Protocol: Example C: In Vivo Preventive Test on Septoria tritici (Leaf Spot on Wheat) [table] The active ingredients are made soluble and homogenized in a mixture of Dimethyl sulfoxide/Acetone//Tween® 80 and then diluted in water to the desired concentration. The young plants of wheat are treated by spraying the active ingredient prepared as described above. Control plants are treated only with an aqueous solution of Acetone/Dimethyl sulfoxide/Tween® 80. After 24 hours, the plants are contaminated by spraying the leaves with an aqueous suspension of Septoria tritici spores. The contaminated wheat plants are incubated for 72 hours at 18° C. and at 100% relative humidity and then for 21 days at 20° C. and at 90% relative humidity. The test is evaluated 24 days after the inoculation. 0% means an efficacy which corresponds to that of the control plants while an efficacy of 100% means that no disease is observed.
# Sphaerotheca fuliginea [2] = assay: Example D: in vivo preventive test on Sphaerotheca fuliginea (powdery mildew on cucurbits); conditions: Podosphaera fuliginea, 360 h; 500 ppm of active ingredient; gherkin plants, preventive spray; evaluated 15 days after inoculation; read-out: efficacy
# Protocol: Example D: In Vivo Preventive Test on Sphaerotheca fuliginea (Powdery Mildew on Cucurbits) [table] The active ingredients are made soluble and homogenized in a mixture of Dimethyl sulfoxide/Acetone//Tween® 80 and then diluted in water to the desired concentration. The young plants of gherkin are treated by spraying the active ingredient prepared as described above. Control plants are treated only with an aqueous solution of Acetone/Dimethyl sulfoxide/Tween® 80. After 24 hours, the plants are contaminated by spraying the leaves with an aqueous suspension of Sphaerotheca fuliginea spores. The contaminated gherkin plants are incubated for 72 hours at 18° C. and at 100% relative humidity and then for 12 days at 20° C. and at 70-80% relative humidity. The test is evaluated 15 days after the inoculation. 0% means an efficacy which corresponds to that of the control plants while an efficacy of 100% means that no disease is observed.
# Uromyces appendiculatus = assay: Example E: in vivo preventive test on Uromyces appendiculatus (bean rust); conditions: 264 h, 500 ppm of active ingredient, bean plants, preventive spray, evaluated 11 days after inoculation, read-out: efficacy
# Protocol: as §1, with “E:” for “B:”, “Uromyces appendiculatus (Bean Rust)” for “Puccinia recondita (Brown Rust on Wheat)”, “bean” for “wheat”, “Uromyces appendiculatus” for “Puccinia recondita”
# Alternaria solani = assay: Example F: in vivo preventive test on Alternaria test (tomatoes); conditions: 72 h, 100 ppm of active ingredient, preventive spray, evaluated 3 days after inoculation, read-out: efficacy
# Protocol: Example F: In Vivo Preventive Test on Alternaria Test (Tomatoes) [table] To produce a suitable preparation of active compound, 1 part by weight of active compound is mixed with the stated amounts of solvent and emulsifier, and the concentrate is diluted with water to the desired concentration. To test for preventive activity, young plants are sprayed with the preparation of active compound at the stated rate of application. After the spray coating has dried on, the plants are inoculated with an aqueous spore suspension of Alternaria solani. The plants are then placed in an incubation cabinet at approximately 20° C. and a relative atmospheric humidity of 100%. The test is evaluated 3 days after the inoculation. 0% means an efficacy which corresponds to that of the untreated control while an efficacy of 100% means that no disease is observed.
# Venturia inaequalis = assay: Example H: in vivo preventive test on Venturia test (apples); conditions: 240 h, 100 ppm of active ingredient, preventive spray, evaluated 10 days after inoculation, read-out: efficacy
# Protocol: Example H: In Vivo Preventive Test on Venturia Test (Apples) [table] To produce a suitable preparation of active compound, 1 part by weight of active compound is mixed with the stated amounts of solvent and emulsifier, and the concentrate is diluted with water to the desired concentration. To test for preventive activity, young plants are sprayed with the preparation of active compound at the stated rate of application. After the spray coating has dried on, the plants are inoculated with an aqueous conidia suspension of the causal agent of apple scab (Venturia inaequalis) and then remain for 1 day in an incubation cabinet at approximately 20° C. and a relative atmospheric humidity of 100%. The plants are then placed in a greenhouse at approximately 21° C. and a relative atmospheric humidity of approximately 90%. The test is evaluated 10 days after the inoculation. 0% means an efficacy which corresponds to that of the untreated control, while an efficacy of 100% means that no disease is observed.
# Sphaerotheca fuliginea [3] = assay: Example M: in vivo preventive test on Sphaerotheca (cucumbers); comparison of phenoxy-pyridyl compounds vs. known phenoxy-phenyl compounds; conditions: Podosphaera fuliginea, 168 h, rate of application 10 ppm, evaluated 7 days after inoculation, read-out: Efficacy in %
# Protocol: Example M: In Vivo Preventive Test on Sphaerotheca (Cucumbers); Comparison of Phenoxy-pyridyl Compounds According to the Invention Vs. Known Phenoxy-phenyl Compounds [table] To produce a suitable preparation of active compound, 1 part by weight of active compound is mixed with the above stated amounts of solvent and emulsifier, and the concentrate is diluted with water to the desired concentration. To test for preventive activity, young plants are sprayed with the preparation of active compound at the stated rate of application. After the spray coating has dried on, the plants are inoculated with an aqueous spore suspension of Sphaerotheca fuliginea. The plants are then placed in a greenhouse at approximately 23° C. and a relative atmospheric humidity of approximately 70%. The test is evaluated 7 days after the inoculation. 0% means an efficacy which corresponds to that of the untreated control, while an efficacy of 100% means that no disease is observed. [table]
smiles,measurement,setting,value
Cc1ccc(Oc2ccc(C(C)(O)Cn3cncn3)c(Cl)n2)cc1Cl (stereo not drawn) [I.29],chromatographic logP,[1],3
same,pest or weed control,Botrytis cinerea,90 to 100%
same,pest or weed control at 500 ppm,Puccinia recondita,80 to 89%
same,pest or weed control at 500 ppm,Septoria tritici,90 to 100%
same,pest or weed control at 500 ppm,Sphaerotheca fuliginea [2],90 to 100%
same,pest or weed control at 500 ppm,Uromyces appendiculatus,90 to 100%
same,pest or weed control at 100 ppm,Alternaria solani,90 to 100%
same,pest or weed control at 100 ppm,Venturia inaequalis,90 to 100%
same,pest or weed control at 10 ppm,Sphaerotheca fuliginea [3],95%
